# Patent US20100227859A1, “TRICYCLIC COMPOUNDS AS MATRIX METALLOPROTEINASE INHIBITORS” (priority 2007, published 2010)
# Target: purified human MMP-12 enzyme (Homo sapiens, UniProt P39900)
# Test: MMP-12 FRET assay
# Type: biochemical
# Conditions: substrate 20 μM, room temperature
# In short: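 Enzyme pre-incubated 30 min at room temperature with compound in 50 mM HEPES pH 7.4, 100 mM NaCl, 5 mM CaCl2, 0.005% Brij-35, 10% DMSO final. Reaction started with 20 μM MCA-Pro-Leu-Gly-Leu-Dpa(DNP)-Ala-Arg, and initial cleavage rate read over 30 min (λex 325, λem 395 nm). IC50 from slope-factor inhibition fit.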
# Sequence of purified human MMP-12 enzyme (P39900 106-470): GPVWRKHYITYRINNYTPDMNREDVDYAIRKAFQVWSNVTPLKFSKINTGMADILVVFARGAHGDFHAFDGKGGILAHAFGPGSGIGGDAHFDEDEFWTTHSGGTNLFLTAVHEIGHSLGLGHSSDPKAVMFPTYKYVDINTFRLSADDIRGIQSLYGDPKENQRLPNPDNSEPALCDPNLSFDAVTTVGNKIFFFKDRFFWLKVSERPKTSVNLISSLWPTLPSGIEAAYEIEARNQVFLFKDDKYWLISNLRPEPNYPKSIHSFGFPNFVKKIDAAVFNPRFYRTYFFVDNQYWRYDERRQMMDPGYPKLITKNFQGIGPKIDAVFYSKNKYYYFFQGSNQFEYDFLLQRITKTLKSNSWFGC
row,Compound,IC50 [nM]
1,"CC(C)[C@H](NS(=O)(=O)c1ccc2c(c1)oc1cc(-c3nnn[nH]3)ccc12)C(=O)O [Compound 250, (S)-2-(7-(1H-tetrazol-5-yl)dibenzo[b,d]furan-3-sulfonamido)-3-methylbutanoic acid]",239
2,"O=C(O)CNS(=O)(=O)c1ccc2c(c1)oc1ccc(-c3nccs3)cc12 [Compound 251, 2-(8-(thiazol-2-yl)dibenzo[b,d]furan-3-sulfonamido)acetic acid]",17
3,"CC(C)C[C@H](NS(=O)(=O)c1ccc2c(c1)oc1ccc(-c3noc(C(C)(C)C)n3)cc12)C(=O)O [Compound 252, (S)-2-(8-(5-tert-butyl-1,2,4-oxadiazol-3-yl)dibenzo[b,d]furan-3-sulfonamido)-4-methylpentanoic acid]",12
4,"CC(C)C[C@@H](NS(=O)(=O)c1ccc2c(c1)oc1ccc(-c3noc(C(C)(C)C)n3)cc12)C(=O)O [Compound 253, (R)-2-(8-(5-tert-butyl-1,2,4-oxadiazol-3-yl)dibenzo[b,d]furan-3-sulfonamido)-4-methylpentanoic acid]",17
5,"CC(C)(C)c1nc(-c2ccc3oc4cc(S(=O)(=O)N[C@@H](C(=O)O)c5ccccc5)ccc4c3c2)no1 [Compound 255, (R)-2-(8-(5-tert-butyl-1,2,4-oxadiazol-3-yl)dibenzo[b,d]furan-3-sulfonamido)-2-phenylacetic acid]",21
6,"CC(C)(C)c1nc(-c2ccc3oc4cc(S(=O)(=O)N[C@H](C(=O)O)C(C)(C)C)ccc4c3c2)no1 [Compound 257, (S)-2-(8-(5-tert-butyl-1,2,4-oxadiazol-3-yl)dibenzo[b,d]furan-3-sulfonamido)-3,3-dimethylbutanoic acid]",9.1
7,"CC(C)[C@H](NS(=O)(=O)c1ccc2c(c1)oc1ccc(-c3noc(-c4ccc(F)cc4F)n3)cc12)C(=O)O [Compound 269, (S)-2-(8-(5-(2,4-difluorophenyl)-1,2,4-oxadiazol-3-yl)dibenzo[b,d]furan-3-sulfonamido)-3-methylbutanoic acid]",< 1.5
8,"CC(C)[C@H](NS(=O)(=O)c1ccc2c(c1)oc1ccc(-c3noc(-c4ccc(Cl)cc4Cl)n3)cc12)C(=O)O [Compound 270, (S)-2-(8-(5-(2,4-dichlorophenyl)-1,2,4-oxadiazol-3-yl)dibenzo[b,d]furan-3-sulfonamido)-3-methylbutanoic acid]",< 1.5
9,"CC(C)[C@H](NS(=O)(=O)c1ccc2c(c1)oc1ccc(-c3noc(-c4ccc(C(F)(F)F)cc4)n3)cc12)C(=O)O [Compound 271, (S)-3-methyl-2-(8-(5-(4-(trifluoromethyl)phenyl)-1,2,4-oxadiazol-3-yl)dibenzo[b,d]furan-3-sulfonamido)butanoic acid]",3.7
10,"CC(C)[C@H](NS(=O)(=O)c1ccc2c(c1)oc1ccc(C(=O)O)cc12)C(=O)O [Compound 273, (S)-7-(N-(1-carboxy-2-methylpropyl)sulfamoyl)dibenzo[b,d]furan-2-carboxylic acid]",210
11,"CC(C)(C)c1nc(-c2ccc3c(c2)oc2ccc(S(=O)(=O)NCC(=O)O)cc23)no1 [Compound 274, 2-(7-(5-tert-butyl-1,2,4-oxadiazol-3-yl)dibenzo[b,d]furan-2-sulfonamido)acetic acid]",60
12,"CC(C)(C)c1nc(-c2ccc3c(c2)oc2ccc(S(=O)(=O)N[C@H](Cc4ccccc4)C(=O)O)cc23)no1 [Compound 275, (R)-2-(7-(5-tert-butyl-1,2,4-oxadiazol-3-yl)dibenzo[b,d]furan-2-sulfonamido)-3-phenylpropanoic acid]",4.1
13,"CC(C)[C@H](NS(=O)(=O)c1ccc2oc3cc(-c4noc(C(C)(C)C)n4)ccc3c2c1)C(=O)O [Compound 276, (S)-2-(7-(5-tert-butyl-1,2,4-oxadiazol-3-yl)dibenzo[b,d]furan-2-sulfonamido)-3-methylbutanoic acid]",34
14,"CC(C)C[C@H](NS(=O)(=O)c1ccc2oc3cc(-c4noc(C(C)(C)C)n4)ccc3c2c1)C(=O)O [Compound 279, (S)-2-(7-(5-tert-butyl-1,2,4-oxadiazol-3-yl)dibenzo[b,d]furan-2-sulfonamido)-4-methylpentanoic acid]",61
15,CC(C)(C)c1nc(-c2ccc3c(c2)oc2ccc(S(=O)(=O)N[C@@H](Cc4c[nH]c5ccccc45)C(=O)O)cc23)no1 [Compound 280],15
16,"CC(C)(C)c1nc(-c2ccc3c(c2)oc2ccc(S(=O)(=O)N[C@H](C(=O)O)c4ccccc4)cc23)no1 [Compound 281, (S)-2-(7-(5-tert-butyl-1,2,4-oxadiazol-3-yl)dibenzo[b,d]furan-2-sulfonamido)-2-phenylacetic acid]",90
17,"CC(C)[C@H](NS(=O)(=O)c1ccc2c(c1)oc1ccc(-c3nc(-c4ccc(C(F)(F)F)cc4)cs3)cc12)C(=O)O [Compound 283, (S)-3-methyl-2-(8-(4-(4-(trifluoromethyl)phenyl)thiazol-2-yl)dibenzo[b,d]furan-3-sulfonamido)butanoic acid]",< 1.5
18,"CC(C)[C@@H](NS(=O)(=O)c1ccc2sc3cc(-c4ccco4)ccc3c2c1)C(=O)O [Compound 287, (R)-2-(7-(furan-2-yl)dibenzo[b,d]thiophene-2-sulfonamido)-3-methylbutanoic acid]",70

# The remaining lines, values ahead:
row,IC50 [nM],Compound
1,< 1.5,"CC(C)Cc1ncc(-c2ccc3oc4cc(S(=O)(=O)N[C@H](C(=O)O)C(C)C)ccc4c3c2)s1 [Compound 248, (S)-2-(8-(2-isobutylthiazol-5-yl)dibenzo[b,d]furan-3-sulfonamido)-3-methylbutanoic acid]"
2,7.8,"CC(C)Cc1ncc(-c2ccc3c(c2)oc2cc(S(=O)(=O)N[C@H](C(=O)O)C(C)C)ccc23)s1 [Compound 249, (S)-2-(7-(2-isobutylthiazol-5-yl)dibenzo[b,d]furan-3-sulfonamido)-3-methylbutanoic acid]"
3,21,"CC(C)(C)c1nc(-c2ccc3oc4cc(S(=O)(=O)N[C@H](C(=O)O)c5ccccc5)ccc4c3c2)no1 [Compound 254, (S)-2-(8-(5-tert-butyl-1,2,4-oxadiazol-3-yl)dibenzo[b,d]furan-3-sulfonamido)-2-phenylacetic acid]"
4,129,"CC(C)(C)c1nc(-c2ccc3oc4cc(S(=O)(=O)N[C@H](Cc5c[nH]c6ccccc56)C(=O)O)ccc4c3c2)no1 [Compound 256, (R)-2-(8-(5-tert-butyl-1,2,4-oxadiazol-3-yl)dibenzo[b,d]furan-3-sulfonamido)-3-(1H-indol-3-yl)propanoic acid]"
5,1.7,"CC(C)[C@H](NS(=O)(=O)c1ccc2c(c1)oc1ccc(-c3noc(C4CCOCC4)n3)cc12)C(=O)O [Compound 260, (S)-3-methyl-2-(8-(5-(tetrahydro-2H-pyran-4-yl)-1,2,4-oxadiazol-3-yl)dibenzo[b,d]furan-3-sulfonamido)butanoic acid]"
6,5.4,"CC(C)[C@H](NS(=O)(=O)c1ccc2c(c1)oc1ccc(-c3noc(CC(C)(C)C)n3)cc12)C(=O)O [Compound 261, (S)-3-methyl-2-(8-(5-neopentyl-1,2,4-oxadiazol-3-yl)dibenzo[b,d]furan-3-sulfonamido)butanoic acid]"
7,2.5,"CC(C)[C@H](NS(=O)(=O)c1ccc2c(c1)oc1ccc(-c3noc(C4CCCC4)n3)cc12)C(=O)O [Compound 263, (S)-2-(8-(5-cyclopentyl-1,2,4-oxadiazol-3-yl)dibenzo[b,d]furan-3-sulfonamido)-3-methylbutanoic acid]"
8,< 1.5,"CC(C)[C@H](NS(=O)(=O)c1ccc2c(c1)oc1ccc(-c3noc(-c4cccs4)n3)cc12)C(=O)O [Compound 264, (S)-3-methyl-2-(8-(5-(thiophen-2-yl)-1,2,4-oxadiazol-3-yl)dibenzo[b,d]furan-3-sulfonamido)butanoic acid]"
9,4,"CC(C)[C@H](NS(=O)(=O)c1ccc2c(c1)oc1ccc(-c3noc(Cc4ccccc4)n3)cc12)C(=O)O [Compound 266, (S)-2-(8-(5-benzyl-1,2,4-oxadiazol-3-yl)dibenzo[b,d]furan-3-sulfonamido)-3-methylbutanoic acid]"
10,< 1.5,"CC(C)[C@H](NS(=O)(=O)c1ccc2c(c1)oc1ccc(-c3noc(-c4ccc(F)cc4)n3)cc12)C(=O)O [Compound 272, (S)-2-(8-(5-(4-fluorophenyl)-1,2,4-oxadiazol-3-yl)dibenzo[b,d]furan-3-sulfonamido)-3-methylbutanoic acid]"
11,130,"CC(C)(NS(=O)(=O)c1ccc2oc3cc(-c4noc(C(C)(C)C)n4)ccc3c2c1)C(=O)O [Compound 277, 2-(7-(5-tert-butyl-1,2,4-oxadiazol-3-yl)dibenzo[b,d]furan-2-sulfonamido)-2-methylpropanoic acid]"
12,7.2,"CC(C)C[C@@H](NS(=O)(=O)c1ccc2oc3cc(-c4noc(C(C)(C)C)n4)ccc3c2c1)C(=O)O [Compound 278, (R)-2-(7-(5-tert-butyl-1,2,4-oxadiazol-3-yl)dibenzo[b,d]furan-2-sulfonamido)-4-methylpentanoic acid]"
13,150,"CC(C)(C)c1nc(-c2ccc3c(c2)oc2ccc(S(=O)(=O)N[C@H](C(=O)O)C(C)(C)C)cc23)no1 [Compound 282, (S)-2-(7-(5-tert-butyl-1,2,4-oxadiazol-3-yl)dibenzo[b,d]furan-2-sulfonamido)-3,3-dimethylbutanoic acid]"
14,18,"CC(C)[C@H](NS(=O)(=O)c1ccc2c(c1)oc1ccc(-c3nc(-c4ccc(F)cc4)cs3)cc12)C(=O)O [Compound 284, (S)-2-(8-(4-(4-fluorophenyl)thiazol-2-yl)dibenzo[b,d]furan-3-sulfonamido)-3-methylbutanoic acid]"
15,220,"CC(C)[C@@H](NS(=O)(=O)c1ccc2sc3cc(-c4nccs4)ccc3c2c1)C(=O)O [Compound 285, (R)-3-methyl-2-(7-(thiazol-2-yl)dibenzo[b,d]thiophene-2-sulfonamido)butanoic acid]"
16,130,"CC(C)[C@@H](NS(=O)(=O)c1ccc2sc3cc(-c4nc5ccccc5s4)ccc3c2c1)C(=O)O [Compound 286, (R)-2-(7-(benzo[d]thiazol-2-yl)dibenzo[b,d]thiophene-2-sulfonamido)-3-methylbutanoic acid]"
